Here are results for 21 compounds from ChEMBL document CHEMBL3044780, “Simple and Rapid Screening Method for Photosystem II Inhibitory Herbicides Using Photoautotrophically Cultured Plant Cells with Chlorophyll Fluorescence Monitoring” (Biosci Biotechnol Biochem, 1993).

Data set [1] in a line: Lipophilicity, log P of the compound. It counts as physicochemical. The settings on record: octanol/water.
Data set [2] relates to Vigna radiata var. radiata. Put plainly: Herbicidal activity against Vigna radiata var. radiata assessed per 100 m'2 after 10 days by greenhouse pot test. Type of data set: functional.

By logP is commonly meant the decadic logarithm of the partition coefficient of the neutral form, usually between octanol and water. A lower logP goes with lower lipophilicity.

In turn, `CN(C)C(=O)Nc1ccc(C#N)cc1` showed a logP in data set [1] of 0.97. For the same compound, the pLD50 in data set [2] amounted to 0.63. `CN(C)C(=O)Nc1ccc(I)cc1` gave a logP in data set [1] of 2.36. In data set [2], this compound had a pLD50 of 1.75. In data set [1], `CN(C)C(=O)Nc1ccc(Br)cc1` yielded a logP of 2.07. The same compound displayed a pLD50 in data set [2] of 1.86. Compound `CN(C)C(=O)Nc1ccc(O)cc1` had a logP in data set [1] of 0.37. Besides, the pLD50 in data set [2] was <0.4. In the case of `CN(C)C(=O)Nc1cccc(F)c1`, in data set [1], the logP turned out to be 1.37. In data set [2], the pLD50 was 1.76. In data set [1], `CN(C)C(=O)Nc1cccc(Cl)c1` displayed a log partition coefficient (logP) of 2.33. In data set [2], the pLD50 was 2.16. In the same order, the values of `COc1cccc(NC(=O)N(C)C)c1` are 1.22 and 1.15. In the case of `CN(C)C(=O)Nc1cccc([N+](=O)[O-])c1`, the lipophilicity (logP) in data set [1] was 1.33. Moreover, in data set [2], the pLD50 is <0.4. In turn, `CN(C)C(=O)Nc1cccc(C#N)c1` gave a logP in data set [1] of 0.98. Also, the pLD50 in data set [2] is <0.4.

Regarding `CN(C)C(=O)Nc1cccc(O)c1`, the pLD50 in data set [2] is given as <0.4.

For the compound `CN(C)C(=O)Nc1ccc(F)cc1`, the logP in data set [1] came out at 1.13. Besides, in data set [2], the pLD50 is given as 1.67. Compound `Cc1ccc(NC(=O)N(C)C)cc1` yielded a lipophilicity (logP) in data set [1] of 1.41. In addition, the pLD50 in data set [2] amounted to 1.21. The compound `COc1ccc(NC(=O)N(C)C)cc1` showed a logP in data set [1] of 1.02. The same compound returned a pLD50 in data set [2] of 1.61.

In the case of `CN(C)C(=O)Nc1ccc(C(F)(F)F)cc1`, in data set [1], the lipophilicity (logP) stood at 2.31. The same compound registered a pLD50 in data set [2] of 1.45. In the same order, the values of `CN(C)C(=O)Nc1ccc([N+](=O)[O-])cc1` are 1.43 and <0.4.

Consider `Cc1cccc(NC(=O)N(C)C)c1`, for which the lipophilicity (logP) in data set [1] came out at 1.46. Consider `CN(C)C(=O)Nc1ccc(Cl)c(Cl)c1` [DCMU], for which the pLD50 in data set [2] was determined as 2.75. Compound `CN(C)C(=O)Nc1ccccc1` [FENURON] showed a pLD50 in data set [2] of 1.54. Regarding `CN(C)C(=O)Nc1cccc(C(F)(F)F)c1` [FLUOMETURON], the logP in data set [1] was 2.2. For the same compound, the pLD50 in data set [2] came out at 1.3. Compound `CC(C)c1ccc(NC(=O)N(C)C)cc1` [ISOPROTURON] returned a logP in data set [1] of 2.87. In data set [2], the pLD50 is 1.92.

For the compound `CN(C)C(=O)Nc1ccc(Cl)cc1` [MONURON], the logP in data set [1] is 1.99. Further, the pLD50 in data set [2] was 2.01.
